According to patent US20140243403A1, “TREATING COLORECTAL, PANCREATIC, AND LUNG CANCER” (The General Hospital Corporation, priority 2011, published 2014):

Key:
[1] = system: threonine 172 phosphorylation of the AMP-activated kinase (p-AMPK); experiment: AMPK threonine 172 phosphorylation, western blot; assay type: cell-based, human; conditions: 24 h
Protocol: (B) Effects of TAK1 inhibition on apoptosis and signaling in a representative panel of KRAS-independent and KRAS-dependent cell lines, 24 h after treatment. PARP and caspase-3 cleavage are shown as indicators of apoptosis, and AMPK threonine 172 (T172) phosphorylation is shown as a downstream indicator of TAK1 signaling activity. GAPDH serves as a gel loading control.
Pharmacologic TAK1 inhibition triggered apoptosis in KRAS-dependent colon cancer cells, as measured by PARP and caspase-3 cleavage (FIG. 3B). […] Thus, low concentrations of 5Z-7-oxozeaenol, in the range of 0.625 to 1.25 μM, promote apoptosis selectively in KRAS-dependent colon cancer cells.
The following antibodies were used for western blotting in the above examples: KRAS OP-24, Pan-Ras OP-40 (Calbiochem); PARP (BD Pharmigen, 4C10-5); BMP-7 (Abcam); phospho-ERK, Axin2, phospho Smad1 and total Smad1/5/8, phospho- and total AMPK, phospho- and total AKT, cleaved Caspase-3 (Cell Signaling); GAPDH (Chemicon); E-Cadherin, beta-catenin (BD Pharmigen) Syk, TAK1, total ERK1 (Santa Cruz). For secreted BMP-7 levels, 1×10^6 HT29 cells stably expressing ER-KRAS(12V) were plated in 10 cm dishes. 24 h post-plating, 10 ml serum-free DME/F12 medium (Gibco) was added. Conditioned media was collected 24 h post-induction of ER-KRAS(12V) with 4-HT and concentrated to […], using AMICON® Ultra-4 Centrifugal Filter Units with 3 kDa membranes. […]

[2] = system: HT55 cells; experiment: Cellular proliferation and viability, CRC cell line panel; assay type: cell-based, human; conditions: KRAS WT, BRAF WT, APC del, CTNNB1 WT, 3 days post-treatment
Protocol: (§1) (A) IC50 values (μM) for effects on cellular proliferation and viability with the TAK1 kinase inhibitor 5z-7-oxozeaenol in a panel of colon cancer cell lines that have been genotyped as KRAS mutant (KRAS-independent—circles or KRAS-dependent—squares), BRAF mutant (triangles) or wild-type for both KRAS and BRAF (OTHER—diamonds). Effects on growth were measured 3 days post-treatment. Data are represented as the mean of 3 independent experiments and error bars indicate the median±interquartile range. *denotes p<0.00001; n.s.—not significant.
(§2) To further validate TAK1 as a candidate therapeutic target in this context, a potent and selective TAK1 kinase inhibitor, 5Z-7-oxozeaenol (Rawlins et al., 1999), was used. Sensitivity to 5Z-7-oxozeaenol was tested in a panel of 47 colon cancer cell lines with various genotypes (FIGS. 3A and 9A). KRAS and BRAF genotypes were either procured from the Sanger Institute's Catalog of Somatic Mutations (COSMIC) or determined by targeted resequencing (Table 2). KRAS mutation status was determined as described above; the same methods were used to determine the mutation states of BRAF. BRAF exon15 was sequenced with TCATAATGCTTGCTCTGATAGGA (forward; SEQ ID NO:3) and GGCCAAAAATTTAATCAGTGG (reverse; SEQ ID NO:4).

[3] = system: COLO-205 cells; experiment: as above; assay type: cell-based, human; conditions: KRAS WT, BRAF V600E, APC del, CTNNB1 WT, 3 days post-treatment
Protocol: as §1, §2

[4] = system: SW837 cells; experiment: as above; assay type: cell-based, human; conditions: KRAS G12C, BRAF WT, APC del, CTNNB1 WT, 3 days post-treatment
Protocol: as §1, §2

[5] = system: SW948 cells; experiment: as above; assay type: cell-based, human; conditions: KRAS Q61L, BRAF WT, APC del, CTNNB1 WT, 3 days post-treatment
Protocol: as §1, §2

[6] = Toxicity in treated xenograft mice; assay type: in vivo, NOD/SCID mice; conditions: 15 mg/kg daily intraperitoneal
Protocol: To validate the efficacy of 5Z-7-oxozeaenol in vivo, subcutaneous xenografted tumors were generated in NOD/SCID mice using four representative KRAS mutant cell lines: HCT8 and SW837 (KRAS-independent), and SK-CO-1 and SW620 (KRAS-dependent). Human colorectal cancer tumor cells were trypsinized and resuspended as single cell suspensions at 3×10^7 cells per ml in PBS. 100 μL (3×10^6 cells total) of this suspension were injected into opposite left and right flanks of NOD/SCID mice. All mice were housed in a pathogen-free environment. Tumor size was monitored daily and once tumor volume had reached approximately 200 mm^3, treatment with 5Z-7-oxozeaenol was initiated (7 to 14 days post-implantation). Mice were injected daily with 15 mg/kg 5Z-7-oxozeaenol. The drug was resuspended as a 25 mg/ml stock in DMSO. This was further diluted 10-fold in Arachis Oil (Sigma Inc.) to yield a 2.5 mg/ml stock in 10% DMSO. Approximately 120 μl of this stock was delivered to 20 g mice intraperitoneally. Alternatively, 10% DMSO in Arachis Oil was delivered as a vehicle control.
Palpable tumors were evident two weeks post-implantation, at which time mice were treated with either daily intraperitoneal 15 mg/kg of 5Z-7-oxozeaenol or vehicle alone (Rawlins et al., 1999).

[7] = system: TOP-FLASH reporter in YAPC cells; experiment: TOP-FLASH reporter in YAPC PDAC cells; assay type: cell-based; conditions: YAPC cells, simultaneous treatment with BIO
From the text: (E) TOP-FLASH reporter activity in KRAS mutant PDAC cell lines following inhibition of GSK-3 kinase with increasing concentrations of the small molecule inhibitor BIO. PANC-1 are KRAS-independent cells and YAPC are KRAS-dependent cells. Luminescence counts (photons/sec) are plotted on the y-axis. Data are representative of three independent experiments+/−SEM.
(F) TOP-FLASH reporter dose-response relationships in PANC-1 and YAPC cells following combined treatment with GSK-3 and TAK1 inhibitors (BIO and 5Z-7-Oxozeaenok respectively). Luminescence counts (photons/sec) are plotted on the y-axis. Data are represented as the means of triplicates+/−SEM.
To further test the role of Wnt signaling in this context, experiments were performed using two KRAS mutant pancreatic cancer (PDAC) cell lines, PANC-1 and YAPC, which are APC wild-type. PANC-1 cells are KRAS-independent, whereas YAPC cells are KRAS-dependent, a distinction that has been linked to increased KRAS signaling in YAPC cells (Singh et al., 2009). […] In contrast, PANC-1 cells undergo stronger induction of TOP-FLASH activity with combined GSK-3 and TAK1 inhibition (FIG. 11F, […]). […] Finally, a constitutively-activated mutant of β-catenin (CTNNB1-CA) containing S33Y and S45A missense mutations was introduced into KRAS-dependent SW620 cells. This mutant caused partial losses in both KRAS and TAK1 dependencies (FIGS. 13A-C). […]

Question: What does the source list for `COc1cc(O)c2c(c1)/C=C/C[C@H](O)[C@H](O)C(=O)/C=C\C[C@H](C)OC2=O` [5Z-7-oxozeaenol]?
Answer: threonine 172 phosphorylation of AMPK (p-AMPK) ([1]; KRAS-dependent colon cancer cells): reduced; AMPK phosphorylation ([1]; KRAS-independent cells): unaffected; IC50 [2]: 1540 nM; IC50 [3]: 1300 nM; IC50 [4]: 5950 nM; IC50 [5]: 2320 nM; toxicity in treated mice [6]: No overt toxicity; effect on BIO-mediated TOP-FLASH induction [7]: abrogates the BIO-mediated TOP-FLASH induction
